Patent publication US20150164794A1, “METHOD FOR PREPARING AQUEOUS NANOPARTICLE SUSPENSIONS OF DERIVATIVES OF 4,9-DIHYDROXY-NAPHTHO[2,3-b]FURAN ALIPHATIC ACID ESTERS” (Zhoushan Haizhongzhou Xinsheng Pharmaceuticals, Co., Ltd., priority 2012, published 2015)
Like-named read-outs stand apart in the source and are kept apart here.

Assay: Pharmacokinetic study of nanoparticle suspension NS-I-4 in ICR mice
Assay type: in vivo
Settings: for MRT last: read-out: MRT(0-t); for MRT inf: read-out: MRT(0-∞); for Vd: read-out: Vz
Description: Nanoparticle suspension NS-I-4, prepared according to the method as described in example 5, was administered intravenously into ICR mice at a dosage of 30 mg/kg. At different time points (5 min, 10 min, 30 min, 1 h, 2 h, 3 h, 4 h, 6 h) after the drug injection, blood samples were withdrawn from the dosed mice, and then were centrifuged at 6,000 rpm for 10 minutes at 4° C. The supernatant plasma samples were fetched and treated with 9 times volume of acetonitrile containing 0.5% trifluoromethane sulfonic acid. The treated plasmas were centrifuged at 12,000 rpm for 15 minutes at 4° C., and then the supernatants were fetched and analyzed with HPLC.
During treatment of blood samples before HPLC analysis, active drug 2-acetyl-4,9-dihydroxy-naphtho[2,3-b]furan and active metabolite 2-(1-hydroxyl)ethyl-4,9-dihydroxy-naphtho[2,3-b]furan are both oxidized into 2-acetyl-naphtho[2,3-b]furan-4,9-dione and 2-(1-hydroxyl)ethyl-naphtho[2,3-b]furan-4,9-dione, respectively (see scheme 1).
Scheme 1: Compound I is degraded by esterases into active drug, which is further metabolized into active metabolite. During pre-treatment for HPLC analysis, active drug and metabolite are oxidized by oxygen from air to oxidized drug and oxidized metabolite, respectively.
The Waters HPLC system used in this study includes: 1525 dual pump, 2998 photodiode array detector, 2707 auto sampler, Breeze 2 control and analysis software. The HPLC column used in this study: Phenomenex Luna C18, 250×4.60 mm 5 micron. The HPLC mobile phase: buffer A, 80% water, 20% acetonitrile; buffer B, 10% water, 70% acetonitrile, 20% tetrahydrofuran. The HPLC mobile phase gradient: 0-3 min, 50% buffer B to 50% buffer B, 3-10 min, 50% buffer B to 100% buffer B, 10-20 min, 100% buffer B to 100% buffer B, 20-22 min, 100% buffer B−50% buffer B, 22-25 min, 50% buffer B to 50% buffer B; flow rate, 1 ml/min.
Time courses of compound I, oxidized drug and oxidized active metabolite are illustrated in FIG. 2.

[1] = analyte in mouse plasma after NS-I-4 intravenously 30 mg/kg, ICR mice
[2] = iv, analyte in mouse plasma after NS-I-4 intravenously 30 mg/kg, ICR mice
[3] = iv, analyte in mouse plasma after NS-I-4 intravenously 30 mg/kg, ICR mice, read-out: AUC(0-t)
[4] = iv, analyte in mouse plasma after NS-I-4 intravenously 30 mg/kg, ICR mice, read-out: Cmax
[5] = iv, analyte in mouse plasma after NS-I-4 intravenously 30 mg/kg, ICR mice, read-out: Tmax

| CLz [1] | t1/2z [1] | AUC(0-inf) [2] | AUC(0-t) [3] | Cmax [4] | MRT last [2] | MRT inf [2] | Tmax [5] | Vd [2] | AUC(0-t) [1] | AUC(0-∞) [1] | Cmax [1] | MRT(0-t) [1] | MRT(0-∞) [1] | Tmax [1] | Vz [1] | SMILES | metabolic fate (administered intravenously into ICR mice) |
| --- | --- | --- | --- | --- | --- | --- | --- | --- | --- | --- | --- | --- | --- | --- | --- | --- | --- |
| 58.62 mL/min/kg | 184.4 min | 8530 ng·h/mL | 7420 ng·h/mL | 6130 ng/mL | 74.9 min | 147 min | 10 min | 15.6 L/kg | – | – | – | – | – | – | – | CC(=O)c1cc2c(o1)C(=O)c1ccccc1C2=O [2-acetyl-naphtho[2,3-b]furan-4,9-dione] | – |
| 1.97 mL/min/kg | 23.8 min | 255000 ng·h/mL | 255000 ng·h/mL | 288000 ng/mL | 37.7 min | 37.7 min | 10 min | 0.067 L/kg | – | – | – | – | – | – | – | CCCCCCCC(=O)Oc1c2ccccc2c(OC(=O)CCCCCCC)c2oc(C(C)=O)cc12 [Compound I, 2-acetyl-4,9-bis(octanoyloxy)-naphtho[2,3-b]furan] | degraded by esterases into active drug 2-acetyl-4,9-dihydroxy-naphtho[2,3-b]furan |
| 250.07 mL/min/kg | 52.8 min | – | – | – | – | – | – | – | 3801 ng·h/mL | 3999 ng·h/mL | 1695 ng/mL | 86.28 min | 97.68 min | 30 min | 19.051 L/kg | CC(O)c1cc2c(o1)C(=O)c1ccccc1C2=O (stereo not shown) [2-(1-hydroxy)ethyl-naphtho[2,3-b]furan-4,9-dione] | – |
